Assay results taken from BigSolDB 2.1.

COC(=O)N(OC)c1ccccc1COc1ccn(-c2ccc(Cl)cc2)n1
solubility (mole fraction)
Conditions | 283.15 K | 288.15 K | 293.15 K | 298.15 K | 303.15 K | 308.15 K
in cyclohexane | 0.000942 | 0.00148 | 0.00217 | 0.00311 | 0.00448 | 0.00609
in ethanol | 0.00458 | 0.00601 | 0.00866 | 0.0117 | 0.0184 | 0.0326
in isobutanol | 0.00283 | 0.00377 | 0.00527 | 0.00758 | 0.0115 | 0.0186
in isopropanol | 0.00248 | 0.00332 | 0.00481 | 0.00687 | 0.0102 | 0.0163
in n-butanol | 0.00534 | 0.00663 | 0.00916 | 0.0132 | 0.0214 | 0.0343
